Experimental data as given in ChEMBL document CHEMBL4043139, “Fluoro and pentafluorothio analogs of the antitumoral curcuminoid EF24 with superior antiangiogenic and vascular-disruptive effects” (Bioorg Med Chem, 2017).
Calls of active or inactive are those of the source. The rule behind the calls is not given here.

Key:
Gallus gallus [1] = experiment: Vascular disruptive activity in 6 days post fertilized chicken egg chorioallantoic/vitelline membrane assessed as degradation of blood vessels at 10 nmol administered topically measured after 6 hrs by stereo-microscopic analysis; assay type: functional
518A2 [2] = experiment: Cytotoxicity against human 518A2 cells after 72 hrs by MTT assay; assay type: functional, cell-based
HT-29 [3] = experiment: Cytotoxicity against human HT-29 cells after 72 hrs by MTT assay; assay type: functional, cell-based
HCT-116 = experiment: Cytotoxicity against human HCT116 cells after 72 hrs by MTT assay; assay type: functional, cell-based
DLD-1 = experiment: Cytotoxicity against human DLD1 cells after 72 hrs by MTT assay; assay type: functional, cell-based
PANC-1 = experiment: Cytotoxicity against human PANC1 cells after 72 hrs by MTT assay; assay type: functional, cell-based
[4] = (§1) Cytotoxicity against human KB-V1/Vbl cells after 72 hrs by MTT assay; assay type: functional, cell-based
KB-V1/Vbl = experiment: as §1; assay type: functional, cell-based
[5] = (§2) Cytotoxicity against human MCF7/Topo cells after 72 hrs by MTT assay; assay type: functional, cell-based
MCF7/Topo = experiment: as §2; assay type: functional, cell-based
[6] = (§3) Cytotoxicity against human U87 cells after 72 hrs by MTT assay; assay type: functional, cell-based, U-87MG ATCC; details: U-87 MG
U-87MG ATCC [7] = experiment: as §3; assay type: functional, cell-based
[8] = Cytotoxicity against HDFa after 72 hrs by MTT assay; assay type: cell-based; details: Homo sapiens
HT-29 [9] = experiment: Cell cycle arrest in human HT-29 cells assessed as accumulation at sub-G1 phase at 1 uM after 24 hrs by propidium iodide staining based flow cytometric analysis (reference value: 0.9 +/- 0.1%); assay type: functional
HT-29 [10] = experiment: Cell cycle arrest in human HT-29 cells assessed as accumulation at sub-G1 phase at 2.5 uM after 24 hrs by propidium iodide staining based flow cytometric analysis (reference value: 0.9 +/- 0.1%); assay type: functional
HT-29 [11] = experiment: Cell cycle arrest in human HT-29 cells assessed as accumulation at sub-G1 phase at 5 uM after 24 hrs by propidium iodide staining based flow cytometric analysis (reference value: 0.9 +/- 0.1%); assay type: functional
HT-29 [12] = experiment: Cell cycle arrest in human HT-29 cells assessed as accumulation at G1 phase at 1 uM after 24 hrs by propidium iodide staining based flow cytometric analysis (reference value: 68 +/- 0.9%); assay type: functional
HT-29 [13] = experiment: Cell cycle arrest in human HT-29 cells assessed as accumulation at G1 phase at 2.5 uM after 24 hrs by propidium iodide staining based flow cytometric analysis (reference value: 68 +/- 0.9%); assay type: functional
HT-29 [14] = experiment: Cell cycle arrest in human HT-29 cells assessed as accumulation at G1 phase at 5 uM after 24 hrs by propidium iodide staining based flow cytometric analysis (reference value: 68 +/- 0.9%); assay type: functional
HT-29 [15] = experiment: Cell cycle arrest in human HT-29 cells assessed as accumulation at S phase at 1 uM after 24 hrs by propidium iodide staining based flow cytometric analysis (reference value: 15.6 +/- 0.3%); assay type: functional
HT-29 [16] = experiment: Cell cycle arrest in human HT-29 cells assessed as accumulation at S phase at 2.5 uM after 24 hrs by propidium iodide staining based flow cytometric analysis (reference value: 15.6 +/- 0.3%); assay type: functional
HT-29 [17] = experiment: Cell cycle arrest in human HT-29 cells assessed as accumulation at S phase at 5 uM after 24 hrs by propidium iodide staining based flow cytometric analysis (reference value: 15.6 +/- 0.3%); assay type: functional
HT-29 [18] = experiment: Cell cycle arrest in human HT-29 cells assessed as accumulation at G2/M phase at 1 uM after 24 hrs by propidium iodide staining based flow cytometric analysis (reference value: 15.5 +/- 0.5%); assay type: functional
HT-29 [19] = experiment: Cell cycle arrest in human HT-29 cells assessed as accumulation at G2/M phase at 2.5 uM after 24 hrs by propidium iodide staining based flow cytometric analysis (reference value: 15.5 +/- 0.5%); assay type: functional
HT-29 [20] = experiment: Cell cycle arrest in human HT-29 cells assessed as accumulation at G2/M phase at 5 uM after 24 hrs by propidium iodide staining based flow cytometric analysis (reference value: 15.5 +/- 0.5%); assay type: functional
HT-29 [21] = experiment: Upregulation of cyclin B1 expression in human HT-29 cells at 0.5 to 0.75 uM after 24 hrs by Western blot analysis; assay type: functional, cell-based
Homo sapiens = species: Homo sapiens; experiment: Inhibition of NF-kappaB in human 518A2 cells assessed as reduction in p65 subunit expression at 0.5 to 1 uM after 24 hrs by Western blot analysis; assay type: cell-based
518A2 [22] = experiment: Anti-migratory activity in human 518A2 cells assessed as wound closure at 250 nM after 24 hrs by light microscopic analysis; assay type: functional, cell-based
518A2 [23] = experiment: Anti-migratory activity in human 518A2 cells assessed as wound closure at 250 nM after 48 hrs by light microscopic analysis (reference value: 100%); assay type: functional
Danio rerio = species: Danio rerio; experiment: Antiangiogenic activity in 72 hrs post fertilized zebra fish embryo harboring fli1a:EGFP assessed as area of subintestinal veins at 10 uM after 48 hrs by fluorescence microscopic analysis (reference value: 100%); assay type: functional
[24] = Toxicity in 6 days post fertilized chicken egg chorioallantoic/vitelline membrane assessed as irritation of chorioallantoic/vitelline membrane at 10 nmol administered topically measured after 24 hrs; parameters: species or system Gallus gallus; details: in vivo, topical_or_ocular
Gallus gallus [25] = experiment: Vascular disruptive activity in 6 days post fertilized chicken egg assessed as area covered by blood vessels at 10 nmol administered topically measured after 6 hrs by light microscopic analysis relative to control; assay type: functional
U-87MG ATCC [26] = experiment: Anti-vasculogenic activity in human U87 cells assessed as reduction in formation of cord-like structures at 1 uM after 24 hrs by matrigel based light microscopic analysis; assay type: functional, cell-based
U-87MG ATCC [27] = experiment: Anti-vasculogenic activity in human U87 cells assessed as reduction in formation of blood-vessel like tubular structures at 1 uM after 24 hrs by matrigel based light microscopic analysis; assay type: functional, cell-based
U-87MG ATCC [28] = experiment: Anti-vasculogenic activity in human U87 cells assessed as reduction in formation of small stray colonies at 1 uM after 24 hrs by matrigel based light microscopic analysis; assay type: functional, cell-based
[29] = Cytotoxicity against human U87 cells assessed as cell viability at 10 nmol after 24 hrs by MTT assay relative to control; assay type: cell-based, U-87MG ATCC; details: read-out: Activity

## CCN1C/C(=C\c2ccc(S(F)(F)(F)(F)F)cc2)C(=O)/C(=C/c2ccc(S(F)(F)(F)(F)F)cc2)C1
Gallus gallus [1]
  Activity: Active
518A2 [2]
  Activity: Dose-dependent effect
518A2 [2]; 518A2, 72 h
  IC50: 0.99 µM
HT-29 [3]
  Activity: Dose-dependent effect
HT-29 [3]; HT-29, 72 h
  IC50: 0.29 µM
HCT-116
  Activity: Dose-dependent effect
HCT-116; HCT-116, 72 h
  IC50: 0.24 µM
DLD-1
  Activity: Dose-dependent effect
DLD-1; DLD-1, 72 h
  IC50: 0.33 µM
PANC-1
  Activity: Dose-dependent effect
PANC-1; PANC-1, 72 h
  IC50: 1.1 µM
[4]
  IC50: 0.64 µM
KB-V1/Vbl
  Activity: Dose-dependent effect
[5]
  IC50: 0.4 µM
MCF7/Topo
  Activity: Dose-dependent effect
[6]
  IC50: 0.93 µM
U-87MG ATCC [7]
  Activity: Dose-dependent effect
[8]
  IC50: 3.2 µM
HT-29 [9]
  Activity: 13.2%
HT-29 [10]
  Activity: 12.8%
HT-29 [11]
  Activity: 16.6%
HT-29 [12]
  Activity: 46.7%
HT-29 [13]
  Activity: 43.1%
HT-29 [14]
  Activity: 35.9%
HT-29 [15]
  Activity: 8.1%
HT-29 [16]
  Activity: 12%
HT-29 [17]
  Activity: 16.5%
HT-29 [18]
  Activity: 32.1%
HT-29 [19]
  Activity: 32.1%
HT-29 [20]
  Activity: 31%
HT-29 [21]
  Activity: Active
Homo sapiens
  inhibition: Active
518A2 [22]
  Activity: Active
518A2 [23]
  Activity: 77%
Danio rerio
  Activity: 51%
[24]
  Activity: Toxic
Gallus gallus [25]
  Activity: 67%
U-87MG ATCC [26]
  Activity: inactive
U-87MG ATCC [27]
  Activity: inactive
U-87MG ATCC [28]
  Activity: inactive
[29]
  viability at 24 h, 10 nmol: > 85%
